Source: ChEMBL document CHEMBL1127385, “Synthesis and diuretic activity of alkyl- and arylguanidine analogs of N,N'-dicyclohexyl-4-morpholinecarboxamidine in rats and dogs” (J Med Chem, 1994)

Assays:
Details in all cases: in vivo, po
Rattus norvegicus [1] = test: Total electrolytic excretion of chlorine in urine of rats after peroral administration of 31.6 uM/Kg of drug; assay type: ADME, organism-based
Rattus norvegicus [2] = test: Total electrolytic excretion of chlorine in urine of rats after peroral administration of 316 uM/Kg of drug; assay type: ADME, organism-based
Rattus norvegicus [3] = test: Total electrolytic excretion of potassium in urine of rats after peroral administration of 94.9 uM/Kg of drug; assay type: ADME, organism-based
Rattus norvegicus [4] = test: Total electrolytic excretion of potassium in urine of rats after peroral administration of 31.6 uM/Kg of drug; assay type: ADME, organism-based
Rattus norvegicus [5] = test: Total electrolytic excretion of potassium in urine of rats after peroral administration of 316 uM/Kg of drug; assay type: ADME, organism-based
Rattus norvegicus [6] = test: Total electrolytic excretion of sodium in urine of rats after peroral administration of 94.9 uM/Kg of drug; assay type: ADME, organism-based
Rattus norvegicus [7] = test: Tested for the diuretic activity by measuring the urinary volume after peroral administering 94.9 uM/Kg of drug in rats; assay type: ADME, organism-based, Urine
Rattus norvegicus [8] = test: Tested for the diuretic activity by measuring the urinary volume after peroral administering 31.6 uM/Kg of drug in rats; assay type: ADME, organism-based, Urine
Rattus norvegicus [9] = test: Tested for the diuretic activity by measuring the urinary volume after peroral administering 316 uM/Kg of drug in rats; assay type: ADME, organism-based, Urine
Rattus norvegicus [10] = test: Total electrolytic excretion of sodium in urine of rats after peroral administration of 31.6 uM/Kg of drug; assay type: ADME, organism-based
Rattus norvegicus [11] = test: Total electrolytic excretion of sodium in urine of rats after peroral administration of 316 uM/Kg of drug; assay type: ADME, organism-based
Rattus norvegicus [12] = test: Ratio of Total electrolytic excretion of sodium and potassium in urine of rats after peroral administration of 31.6 uM/Kg of drug; assay type: ADME, organism-based
Rattus norvegicus [13] = test: Ratio of Total electrolytic excretion of sodium and potassium in urine of rats after peroral administration of 316 uM/Kg of drug; assay type: ADME, organism-based
Rattus norvegicus [14] = test: Ratio of Total electrolytic excretion of sodium and potassium in urine of rats after peroral administration of 94.9 uM/Kg of drug; assay type: ADME, organism-based
Rattus norvegicus [15] = test: Total electrolytic excretion of chlorine in urine of rats after peroral administration of 94.9 uM/Kg of drug; assay type: ADME, organism-based
Rattus norvegicus [16] = test: Total electrolytic excretion of chlorine in urine of rats after peroral administration of 83.8 uM/Kg of drug; assay type: ADME, organism-based
Rattus norvegicus [17] = test: Total electrolytic excretion of chlorine in urine of rats after peroral administration of 27.9 uM/Kg of drug; assay type: ADME, organism-based
Rattus norvegicus [18] = test: Total electrolytic excretion of chlorine in urine of rats after peroral administration of 279 uM/Kg of drug; assay type: ADME, organism-based
Rattus norvegicus [19] = test: Total electrolytic excretion of potassium in urine of rats after peroral administration of 27.9 uM/Kg of drug; assay type: ADME, organism-based
Rattus norvegicus [20] = test: Total electrolytic excretion of potassium in urine of rats after peroral administration of 83.8 uM/Kg of drug; assay type: ADME, organism-based
Rattus norvegicus [21] = test: Total electrolytic excretion of potassium in urine of rats after peroral administration of 279 uM/Kg of drug; assay type: ADME, organism-based
Rattus norvegicus [22] = test: Tested for the diuretic activity by measuring the urinary volume after peroral administering 83.8 uM/Kg of drug in rats; assay type: ADME, organism-based, Urine
Rattus norvegicus [23] = test: Total electrolytic excretion of sodium in urine of rats after peroral administration of 27.9 uM/Kg of drug; assay type: ADME, organism-based
Rattus norvegicus [24] = test: Total electrolytic excretion of sodium in urine of rats after peroral administration of 279 uM/Kg of drug; assay type: ADME, organism-based
Rattus norvegicus [25] = test: Total electrolytic excretion of sodium in urine of rats after peroral administration of 83.8 uM/Kg of drug; assay type: ADME, organism-based
Rattus norvegicus [26] = test: Tested for the diuretic activity by measuring the urinary volume after peroral administering 27.9 uM/Kg of drug in rats; assay type: ADME, organism-based, Urine
Rattus norvegicus [27] = test: Tested for the diuretic activity by measuring the urinary volume after peroral administering 279 uM/Kg of drug in rats; assay type: ADME, organism-based, Urine
Rattus norvegicus [28] = test: Ratio of Total electrolytic excretion of sodium and potassium in urine of rats after peroral administration of 279 uM/Kg of drug; assay type: ADME, organism-based
Rattus norvegicus [29] = test: Ratio of Total electrolytic excretion of sodium and potassium in urine of rats after peroral administration of 83.8 uM/Kg of drug; assay type: ADME, organism-based
Rattus norvegicus [30] = test: Ratio of Total electrolytic excretion of sodium and potassium in urine of rats after peroral administration of 27.9 uM/Kg of drug; assay type: ADME, organism-based
Rattus norvegicus [31] = test: Total electrolytic excretion of potassium in urine of rats after peroral administration of 0 uM/Kg of drug; assay type: ADME, organism-based
Rattus norvegicus [32] = test: Total electrolytic excretion of sodium in urine of rats after peroral administration of 0 uM/Kg of drug; assay type: ADME, organism-based
Rattus norvegicus [33] = test: Tested for the diuretic activity by measuring the urinary volume after peroral administering 0 uM/Kg of drug in rats; assay type: ADME, organism-based, Urine

## C1CCC(N/C(=N/C2CCCC2)N2CCOCC2)CC1
Rattus norvegicus [1]
  Excretion Cl-: 0.65 m equiv
Rattus norvegicus [2]
  Excretion Cl-: 1.4 m equiv
Rattus norvegicus [3]
  Excretion K+: 0.26 m equiv
Rattus norvegicus [4]
  Excretion K+: 0.28 m equiv
Rattus norvegicus [5]
  Excretion K+: 0.32 m equiv
Rattus norvegicus [6]
  Excretion Na+: 0.84 m equiv
Rattus norvegicus [7]
  V: 6.3 mL
Rattus norvegicus [8]
  V: 3.8 mL
Rattus norvegicus [9]
  V: 8.9 mL
Rattus norvegicus [10]
  Excretion Na+: 0.62 m equiv
Rattus norvegicus [11]
  Excretion Na+: 1.32 m equiv
Rattus norvegicus [12]
  Ratio: 2.2
Rattus norvegicus [13]
  Ratio: 4.1
Rattus norvegicus [14]
  Ratio: 3.2
Rattus norvegicus [15]
  Excretion Cl-: 0.92 m equiv

## Clc1ccccc1N/C(=N/C1CCCCC1)N1CCOCC1
Rattus norvegicus [16]
  Excretion Cl-: 1.06 m equiv
Rattus norvegicus [17]
  Excretion Cl-: 0.84 m equiv
Rattus norvegicus [18]
  Excretion Cl-: 1.46 m equiv
Rattus norvegicus [19]
  Excretion K+: 0.24 m equiv
Rattus norvegicus [20]
  Excretion K+: 0.29 m equiv
Rattus norvegicus [21]
  Excretion K+: 0.31 m equiv
Rattus norvegicus [22]
  V: 7.7 mL
Rattus norvegicus [23]
  Excretion Na+: 0.72 m equiv
Rattus norvegicus [24]
  Excretion Na+: 1.45 m equiv
Rattus norvegicus [25]
  Excretion Na+: 1.01 m equiv
Rattus norvegicus [26]
  V: 6.2 mL
Rattus norvegicus [27]
  V: 11.2 mL
Rattus norvegicus [28]
  Ratio: 4.7
Rattus norvegicus [29]
  Ratio: 3.5
Rattus norvegicus [30]
  Ratio: 3

## NS(=O)(=O)c1cc(C(=O)O)c(NCc2ccco2)cc1Cl [FUROSEMIDE]
Rattus norvegicus [31]
  Excretion K+: 0.24 m equiv
Rattus norvegicus [32]
  Excretion Na+: 0.65 m equiv
Rattus norvegicus [33]
  V: 4.4 mL
